Data from patent publication US10987359B2, “Oxadiazepinone derivatives and methods of treating hepatitis B infections” (priority 2016, dated 2021).
Where two headings read alike, the source gives them in different places.

System: HBV
Assay: HBV replication inhibition assay (BDNA assay) in HepG2.2.15 cells
Type: cell-based
Details: HepG2.2.15 cells, read-out: DNA EC50
Outline: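 HepG2.2.15 cells with stably integrated HBV were treated with serially diluted compounds at 0.5% DMSO for 6 days, with medium and compound refreshed at day 3. Encapsidated HBV DNA from DNase-treated supernatant was quantified by branched DNA assay. EC50 came from % inhibition versus DMSO, fitted non-linearly.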

[1] = Hepatitis B virus, HepG2.2.15, HBV replication assay (BDNA assay)
[2] = HBV replication assay (BDNA assay)

Row | Compound | EC50 [1] | EC50 [2]
1 | CN1O[C@H](CN)Cn2nc3c(c2C1=O)CN(C(=O)Nc1ccc(F)c(C#N)c1)CC3 (stereo in doubt) [Compound 114_E1, (S*)-4-(aminomethyl)-N-(3-cyano-4-fluoro-phenyl)-2-methyl-1-oxo-5,8,9,11-tetrahydro-4H-pyrido[2,3]pyrazolo[2,4-d][1,2,5]oxadiazepine-10-carboxamide] | 1 to 100 nM | –
2 | C[C@@H]1Cc2nn3c(c2CN1C(=O)Nc1ccc(F)c(C(F)(F)F)c1)C(=O)N(C)OC(CN)C3 (stereo in doubt) [Compound 116_D1, (4S*,9R)-4-(aminomethyl)-N-(4-fluoro-3-(trifluoromethyl)phenyl)-2,9-dimethyl-1-oxo-1,4,5,8,9,11-hexahydropyrido[4′,3′:3,4]pyrazolo[5,1-d][1,2,5]oxadiazepine-10(2H)-carboxamide] | 1 to 100 nM | –
3 | C[C@@H]1Cc2nn3c(c2CN1C(=O)Nc1ccc(F)c(C(F)(F)F)c1)C(=O)N(C)OC(CN)C3 (stereo in doubt) [Compound 116_D2, (4R*,9R)-4-(aminomethyl)-N-(4-fluoro-3-(trifluoromethyl)phenyl)-2,9-dimethyl-1-oxo-1,4,5,8,9,11-hexahydropyrido[4′,3′:3,4]pyrazolo[5,1-d][1,2,5]oxadiazepine-10(2H)-carboxamide] | – | 1 to 100 nM
4 | C[C@@H]1Cc2nn3c(c2CN1C(=O)Nc1ccc(F)c(Br)c1)C(=O)N(C)OC(CN)C3 (stereo in doubt) [Compound 117_D1, (4S*,9R)-4-(aminomethyl)-N-(3-bromo-4-fluorophenyl)-2,9-dimethyl-1-oxo-1,4,5,8,9,11-hexahydropyrido[4′,3′:3,4]pyrazolo[5,1-d][1,2,5]oxadiazepine-10(2H)-carboxamide] | 1 to 100 nM | –
5 | C[C@@H]1Cc2nn3c(c2CN1C(=O)Nc1ccc(F)c(Br)c1)C(=O)N(C)OC(CN)C3 (stereo in doubt) [Compound 117_D2, (4R*,9R)-4-(aminomethyl)-N-(3-bromo-4-fluorophenyl)-2,9-dimethyl-1-oxo-1,4,5,8,9,11-hexahydropyrido[4′,3′:3,4]pyrazolo[5,1-d][1,2,5]oxadiazepine-10(2H)-carboxamide] | – | 1 to 100 nM
6 | C[C@@H]1Cc2nn3c(c2CN1C(=O)Nc1ccc(F)c(Cl)c1)C(=O)N(C)OC(COCC(F)F)C3 (stereo in doubt) [Compound 121_D2, (4R*,9R)—N-(3-chloro-4-fluorophenyl)-4-((2,2-difluoroethoxy)methyl)-2,9-dimethyl-1-oxo-1,4,5,8,9,11-hexahydropyrido[4′,3′:3,4]pyrazolo[5,1-d][1,2,5]oxadiazepine-10(2H)-carboxamide] | 1 to 100 nM | –
7 | C[C@@H]1Cc2nn3c(c2CN1C(=O)Nc1ccc(F)c(Br)c1)C(=O)N(C)OC(COCC(F)F)C3 (stereo in doubt) [Compound 122_D1, (4S*,9R)—N-(3-bromo-4-fluorophenyl)-4-((2,2-difluoroethoxy)methyl)-2,9-dimethyl-1-oxo-1,4,5,8,9,11-hexahydropyrido[4′,3′:3,4]pyrazolo[5,1-d][1,2,5]oxadiazepine-10(2H)-carboxamide] | 1 to 100 nM | –
8 | C[C@@H]1Cc2nn3c(c2CN1C(=O)Nc1ccc(F)c(Br)c1)C(=O)N(C)OC(COCC(F)F)C3 (stereo in doubt) [Compound 122_D2, (4R*,9R)—N-(3-bromo-4-fluorophenyl)-4-((2,2-difluoroethoxy)methyl)-2,9-dimethyl-1-oxo-1,4,5,8,9,11-hexahydropyrido[4′,3′:3,4]pyrazolo[5,1-d][1,2,5]oxadiazepine-10(2H)-carboxamide] | – | 1 to 100 nM
9 | C[C@@H]1Cc2nn3c(c2CN1C(=O)Nc1ccnc(Br)c1F)C(=O)N(C)OC(COCC(F)F)C3 (stereo in doubt) [Compound 123_D1, (4S*,9R)—N-(2-bromo-3-fluoropyridin-4-yl)-4-((2,2-difluoroethoxy)methyl)-2,9-dimethyl-1-oxo-1,4,5,8,9,11-hexahydropyrido[4′,3′:3,4]pyrazolo[5,1-d][1,2,5]oxadiazepine-10(2H)-carboxamide] | – | 100 to 500 nM
10 | C[C@@H]1Cc2nn3c(c2CN1C(=O)Nc1ccnc(Br)c1F)C(=O)N(C)OC(COCC(F)F)C3 (stereo in doubt) [Compound 123_D2, (4R*,9R)—N-(2-bromo-3-fluoropyridin-4-yl)-4-((2,2-difluoroethoxy)methyl)-2,9-dimethyl-1-oxo-1,4,5,8,9,11-hexahydropyrido[4′,3′:3,4]pyrazolo[5,1-d][1,2,5]oxadiazepine-10(2H)-carboxamide] | – | 1 to 100 nM
11 | C[C@@H]1Cc2nn3c(c2CN1C(=O)Nc1ccc(F)c(C#N)c1)C(=O)N(C)OC(COCC(F)F)C3 (stereo in doubt) [Compound 124_D1, (4S*,9R)—N-(3-cyano-4-fluorophenyl)-4-((2,2-difluoroethoxy)methyl)-2,9-dimethyl-1-oxo-1,4,5,8,9,11-hexahydropyrido[4′,3′:3,4]pyrazolo[5,1-d][1,2,5]oxadiazepine-10(2H)-carboxamide] | 1 to 100 nM | –
12 | C[C@@H]1Cc2nn3c(c2CN1C(=O)Nc1ccc(F)c(C#N)c1)C(=O)N(C)OC(COCC(F)F)C3 (stereo in doubt) [Compound 124_D2, (4R*,9R)—N-(3-cyano-4-fluorophenyl)-4-((2,2-difluoroethoxy)methyl)-2,9-dimethyl-1-oxo-1,4,5,8,9,11-hexahydropyrido[4′,3′:3,4]pyrazolo[5,1-d][1,2,5]oxadiazepine-10(2H)-carboxamide] | – | 1 to 100 nM
13 | Cc1cc(NC(=O)N2Cc3c(nn4c3C(=O)N(C)OC(COCC(F)F)C4)C[C@H]2C)ccc1F (stereo in doubt) [Compound 125_D1, (4S*,9R)-4-((2,2-difluoroethoxy)methyl)-N-(4-fluoro-3-methylphenyl)-2,9-dimethyl-1-oxo-1,4,5,8,9,11-hexahydropyrido[4′,3′:3,4]pyrazolo[5,1-d][1,2,5]oxadiazepine-10(2H)-carboxamide] | 1 to 100 nM | –
14 | Cc1cc(NC(=O)N2Cc3c(nn4c3C(=O)N(C)OC(COCC(F)F)C4)C[C@H]2C)ccc1F (stereo in doubt) [Compound 125_D2, (4R*,9R)-4-((2,2-difluoroethoxy)methyl)-N-(4-fluoro-3-methylphenyl)-2,9-dimethyl-1-oxo-1,4,5,8,9,11-hexahydropyrido[4′,3′:3,4]pyrazolo[5,1-d][1,2,5]oxadiazepine-10(2H)-carboxamide] | – | 1 to 100 nM
15 | C[C@@H]1Cc2nn3c(c2CN1C(=O)Nc1ccc(F)c(C(F)(F)F)c1)C(=O)N(C)OC(COCC(F)F)C3 (stereo in doubt) [Compound 126_D1, (4S*,9R)-4-((2,2-difluoroethoxy)methyl)-N-(4-fluoro-3-(trifluoromethyl)phenyl)-2,9-dimethyl-1-oxo-1,4,5,8,9,11-hexahydropyrido[4′,3′:3,4]pyrazolo[5,1-d][1,2,5]oxadiazepine-10(2H)-carboxamide] | – | 100 to 500 nM
16 | C[C@@H]1Cc2nn3c(c2CN1C(=O)Nc1ccc(F)c(C(F)(F)F)c1)C(=O)N(C)OC(COCC(F)F)C3 (stereo in doubt) [Compound 126_D2, (4R*,9R)-4-((2,2-difluoroethoxy)methyl)-N-(4-fluoro-3-(trifluoromethyl)phenyl)-2,9-dimethyl-1-oxo-1,4,5,8,9,11-hexahydropyrido[4′,3′:3,4]pyrazolo[5,1-d][1,2,5]oxadiazepine-10(2H)-carboxamide] | – | 1 to 100 nM
17 | C[C@@H]1Cc2nn3c(c2CN1C(=O)Nc1cc(Cl)c(F)cc1F)C(=O)N(C)OC(COCC(F)F)C3 (stereo in doubt) [Compound 127_D2, (4R*,9R)—N-(5-chloro-2,4-difluorophenyl)-4-((2,2-difluoroethoxy)methyl)-2,9-dimethyl-1-oxo-1,4,5,8,9,11-hexahydropyrido[4′,3′:3,4]pyrazolo[5,1-d][1,2,5]oxadiazepine-10(2H)-carboxamide] | 1 to 100 nM | –
18 | C[C@@H]1Cc2nn3c(c2CN1C(=O)Nc1ccc(F)c(Cl)c1F)C(=O)N(C)OC(C(=O)N(C)CC(F)F)C3 (stereo in doubt) [Compound 152_D2, (4R*,9R)—N10-(3-chloro-2,4-difluorophenyl)-N4-(2,2-difluoroethyl)-N4,2,9-trimethyl-1-oxo-1,4,5,8,9,11-hexahydropyrido[4′,3′:3,4]pyrazolo[5,1-d][1,2,5]oxadiazepine-4,10(2H)-dicarboxamide] | 1 to 100 nM | –
19 | C[C@@H]1Cc2nn3c(c2CN1C(=O)Nc1ccc(F)c(C#N)c1F)C(=O)N(C)OC(C(=O)N(C)CC(F)F)C3 (stereo in doubt) [Compound 153_D1, (4S*,9R)—N10-(3-cyano-2,4-difluorophenyl)-N4-(2,2-difluoroethyl)-N4,2,9-trimethyl-1-oxo-1,4,5,8,9,11-hexahydropyrido[4′,3′:3,4]pyrazolo[5,1-d][1,2,5]oxadiazepine-4,10(2H)-dicarboxamide] | – | 100 to 500 nM
20 | C[C@@H]1Cc2nn3c(c2CN1C(=O)Nc1ccc(F)c(C#N)c1F)C(=O)N(C)OC(C(=O)N(C)CC(F)F)C3 (stereo in doubt) [Compound 153_D2, (4R*,9R)—N10-(3-cyano-2,4-difluorophenyl)-N4-(2,2-difluoroethyl)-N4,2,9-trimethyl-1-oxo-1,4,5,8,9,11-hexahydropyrido[4′,3′:3,4]pyrazolo[5,1-d][1,2,5]oxadiazepine-4,10(2H)-dicarboxamide] | – | 1 to 100 nM
21 | C[C@@H]1Cc2nn3c(c2CN1C(=O)Nc1cc(Cl)c(F)cc1F)C(=O)N(C)OC(C(=O)N(C)CC(F)F)C3 (stereo in doubt) [Compound 154_D1, (4S*,9R)—N10-(5-chloro-2,4-difluorophenyl)-N4-(2,2-difluoroethyl)-N4,2,9-trimethyl-1-oxo-1,4,5,8,9,11-hexahydropyrido[4′,3′:3,4]pyrazolo[5,1-d][1,2,5]oxadiazepine-4,10(2H)-dicarboxamide] | – | 500 to 1000 nM
22 | C[C@@H]1Cc2nn3c(c2CN1C(=O)Nc1cc(Cl)c(F)cc1F)C(=O)N(C)OC(C(=O)N(C)CC(F)F)C3 (stereo in doubt) [Compound 154_D2, (4R*,9R)—N10-(5-chloro-2,4-difluorophenyl)-N4-(2,2-difluoroethyl)-N4,2,9-trimethyl-1-oxo-1,4,5,8,9,11-hexahydropyrido[4′,3′:3,4]pyrazolo[5,1-d][1,2,5]oxadiazepine-4,10(2H)-dicarboxamide] | – | 1 to 100 nM
